Results taken from PMC4915154, “Development of background-free tame fluorescent probes for intracellular live cell imaging” (Nature Communications, 2016).

Legend:
[1] = test system: U-2 OS cells; assay: Cell viability assay (MTS); assay type: cell-based, human; conditions: 0-10 μM, 1-16 h
Experimental: Cell viability was assessed using MTS assay kit (Promega). 1 × 10^5 U-2 OS cells were seeded on 10 mm culture dishes; cells were stained with or without CO-1 ([…]) for 1–16 h. After incubation, the MTS reagent was added and incubated for 4 h at 37 °C. Absorbance was determined at 490 nm using SpectraMax M2 plate reader.
Supplementary Figure 18 Cell viability test for CO-1.
Cell viability was measured by MTS assay for concentration of probe at 0 μM, 0.3 μM, 1 μM, 3 μM and 10 μM in 1 hour, 4 hours and 16 hours incubation in U-2 OS cells. Absorbance was determined at 490 nm. Each absorbance value was subtracted with blank sample (blank sample = cells containing compound at respective concentration without MTS reagent). Cell viability was calculated by: (viable cells)% = (OD of treated sample/OD of untreated sample)×100. Data are presented as the means + SD obtained from triplicate experiments.
(also on this page, place not known: 25 50 75 100 hour (%) Incubation time CO-1 0 μM μM μM 0 0.3 1 3 μM 10 μM 1 4 hours 16 hours U -2 ( blank reagent) . Cell viability)
(§1) (1 picture or pasted object on this page, not shown here)

[2] = test system: azide-tagged intracellular organelles in U-2 OS cells; assay: Live cell SPAAC labelling of azide-tagged organelles (mitochondria, lysosome, golgi apparatus); assay type: cell-based, human; conditions: U-2 OS cells pre-treated with TPP-Az, Sphingo-Az or Morph-Az, 2 μM probe, 1 h, 37 °C
From the text: Next, we investigated intracellular imaging in live cells using CO-1. We synthesized various azide-bearing reporters: TPP-Az, a triphenylphosphonium analogue which accumulates in mitochondria; Sphingo-Az, a ceramide analogue to target golgi apparatus; and Morph-Az, an azide derivative with morpholine moiety as a directing group for lysosome (Fig. 3a). SPAAC covalent labelling reactions between CO-1 and all azide reporters in vitro were clean and rapid. We anticipated that the cell permeable CO-1 is capable of labelling any azide reporters effectively, regardless the reporters' cellular localization. We added 2 μM CO-1 to the growth media of U-2 OS cells pre-treated with TPP-Az, Sphingo-Az or Morph-Az separately. Confocal fluorescence images were then taken after probe washing.
Figure 3 Live cell imaging with CO-1. (a) Chemical structures and schematic illustration of the covalent labelling of azide-tagged organelles using CO-1 in live cells. (b) Fluorescence imaging of mitochondria, lysosome and golgi apparatus in U-2 OS cells labelled with CO-1. Cells pre-treated with TPP-Az, Morph-Az or Sphingo-Az were incubated with 2 μM CO-1 in growth media at 37 °C for 1 h and followed by counterstaining with organelle trackers. Scale bar, 15 μm. (c) Fluorescence imaging of histone H2B in live U-2 OS. U-2 OS cells were co-transfected with plasmids pIre-Azi3 and pmH2B-6-mKate2-16tag to incorporate UAA Azi into H2B-mKate2 at site 16. After Azi incorporation, cells were labelled with 10 μM CO-1 for 90 min at 37 °C. Cells were then washed and imaged. The mKate2 (red) signals were detected in cell nuclei only, and colocalized with the CO-1 (green) signals in the merged image. Scale bar, 5 μm.
U-2 OS cells were treated with 5 μM TPP-Az, in culture media for 2 h at 37 °C. After incubation, cells were washed and added with 2 μM CO-1 probe. Labelling was allowed to proceed for 1 h at 37 °C in the incubator chamber. […]
Fluorescence imaging of mitochondria, lysosome and golgi apparatus in U-2 OS cells labeled with CO-1H. […] In contrast to CO-1, high fluorescence background from CO-1H was observed. […]

[3] = test system: human histone H2B (H2B-mKate2 fusion with Azi at site 16) in U-2 OS cells; assay: Histone H2B imaging in live cells (Azi incorporated in H2B-mKate2); assay type: cell-based; conditions: live U-2 OS cells, 10 μM, 37 °C
From the text: The red fluorescent protein mKate2 was fused to the C terminus of human histone H2B as a red fluorescent marker. Using the in vivo unnatural amino acid (UAA) technology,[27][28] an azide-bearing UAA, p-azido-L-phenylalanine (Azi), was site-specifically incorporated at site 16 of mKate2 of the fusion protein H2B-mKate2, which was expressed in live U-2 OS cells. The cells were labelled with CO-1, washed to remove unreacted CO-1, and then imaged with laser scanning confocal microscopy.
U-2 OS cells were transfected with 1 μg DNA of each plasmid using Lipofectamine2000 in 35 mm glass bottom dishes according to the manufacturer protocol. Azi (purchased from Bachem) was added 1 h before transfection at a final concentration of 0.5 mM. Plasmid pIre-Azi3 (expressing the orthogonal amber suppressor transfer RNA (tRNA) and the E2AziRS specific for Azi) was co-transfected with plasmid pmH2B-6-mKate2-16tag in a 1:1 molar ratio. After 24 h, cells were washed three times with culture medium (DMEM with 10% FBS) (15 min each time). Growth media containing 10 μM CO-1 was then added to the dishes, and cells were incubated at 37 °C for 90 min followed by 4 times washing with growth media (30 min each time). Laser scanning confocal microscopy (Zeiss LSM 700) was used for imaging. The same conditions and settings were used for imaging control and experimental cells.
U-2 OS cells were transfected with plasmid pmH2B-6-mKate2. After 24 hours, cells were
labeled with 10 μM CO-1 for 90 minutes at 37 °C. Cells were washed to remove the unreacted
CO-1 and then imaged for mKate2 (red) and CO-1 (green) signals. Scale bar, 5 μm.
as §1

Q: With `Cc1cc(C)n2c1C(CCNC(=O)CCC(=O)OCC1C3CCC#CCCC31)=C1C=CC=[N+]1[B-]2(F)F` (stereo not drawn) [CO-1] as the molecule, how does the “Cell viability / toxicity” value [1] read?
A: The value was “nontoxic and did not interfere with cell proliferation”.

Q: What about the “Fluorescence background after washing” value [2] of the same molecule?
A: Its value is “Clean fluorescence background”.

Q: What about the “Labelling of azide-tagged organelles” value [2] of the same molecule?
A: The value was “clearly labelled the azide-tagged intracellular organelles in live cells”.

Q: And the “Labelling of Azi-bearing histone H2B-mKate2” value ([3]; 90 min)?
A: Its value is “specific labelling of histone H2B”.

Q: And the Nuclear membrane permeability ([3]; 90 min)?
A: Its Nuclear membrane permeability is “pass through nuclear membrane”.

Q: And the “Labelling of wild type H2B-mKate2 (control without Azi)” value ([3]; 90 minutes)?
A: Its value is “did not label wild type H2B-mKate2”.
